The record followed here is PubChem BioAssay (NCI).

The structures appear in SMILES notation. Where “and” joins values, the source holds several entries; their conditions need not be identical. Identical values can stand only once.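 Compound exposure: 48 hours, 5 concentrations, 96-well plates. The concentration for 50% growth inhibition is given as GI50. TGI: total growth inhibition.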 Where only a bound is given, the exact number is not on record here.

Test systems include 786-0 renal; HOP-92 NSCLC; HT29 colon; NCI-H23 lung; OVCAR-3 ovarian; SF-295 CNS; SK-MEL-2 melanoma; SNB-19 CNS; SR leukemia; K-562 leukemia.
What all share (experiment): NCI tumour cell line growth inhibition, 48 h

Regarding `CC1[C@@H]2[C@@H](C=C3C4CCC5Cc6nc7c(nc6C[C@@]5(C)C4C[C@H](O)[C@]32CO)CC2CCC3C4=C[C@H]5O[C@@]6(O[C@@](C)(CO)C[C@@H]6O)C(C)[C@@]5(O)[C@]4(C)[C@@H](O)CC3[C@]2(C)C7)O[C@]12CCC(C)(C)O2` (stereo partly specified), the TGI is 0.534 µM in the experiment on 786-0 renal; 0.084 µM with HOP-92 NSCLC; 0.44 µM and 0.414 µM in the experiment with HT29 colon; 0.574 µM in the experiment with NCI-H23 lung; above 3.65 µM in the experiment on OVCAR-3 ovarian; 0.455 µM and 0.284 µM in the experiment with SK-MEL-2 melanoma. The TGI with SNB-19 CNS was 0.603 µM and > 3.65 µM; with SR leukemia, 0.229 µM. Further, the GI50 in the experiment on HT29 colon is 0.00302 µM; in the experiment on OVCAR-3 ovarian, 1.99 µM; with SF-295 CNS, below 0.000365 µM; in the experiment on SK-MEL-2 melanoma, 0.0114 µM; in the experiment with SNB-19 CNS, 0.0264 µM.

For the compound `O=[As](O)(O)c1ccc(NCc2ccccc2)cc1`, the TGI with 786-0 renal, with HOP-92 NSCLC, in the experiment on HT29 colon, with K-562 leukemia, with NCI-H23 lung and in the experiment with OVCAR-3 ovarian was above 100 µM each time. In addition, the TGI in the experiment with SF-295 CNS, in the experiment on SK-MEL-2 melanoma, in the experiment on SNB-19 CNS and in the experiment on SR leukemia was above 100 µM in each case.

Turning to `Cc1cc(C)nc(NC(N)=NCCc2ccccc2)n1`, the GI50 in the experiment with 786-0 renal is 4.86 µM; in the experiment on HOP-92 NSCLC, 3.97 µM; in the experiment with HT29 colon, 3.02 µM; in the experiment on K-562 leukemia, 3.56 µM; in the experiment with NCI-H23 lung, 7.02 µM; in the experiment on OVCAR-3 ovarian, 2.76 µM. Further, the GI50 in the experiment with SF-295 CNS was 1.64 µM; in the experiment on SK-MEL-2 melanoma, 12.6 µM; in the experiment on SNB-19 CNS, 4.55 µM; in the experiment on SR leukemia it was 2.77 µM. The TGI is above 100 µM in the experiment with 786-0 renal; 73.1 µM in the experiment on HOP-92 NSCLC; above 100 µM in the experiment on HT29 colon; above 100 µM in the experiment on K-562 leukemia; above 100 µM in the experiment with NCI-H23 lung; 8.35 µM in the experiment on OVCAR-3 ovarian. For the same compound, the TGI in the experiment on SF-295 CNS was 5.44 µM; in the experiment with SK-MEL-2 melanoma, above 100 µM; in the experiment on SNB-19 CNS, above 100 µM; in the experiment on SR leukemia it was 14.5 µM.

With `COC(=O)[C@@H](NC(=O)NC(=O)NC(=O)CI)C(C)C`, the GI50 in the experiment on 786-0 renal is 11.4 µM; with HOP-92 NSCLC, 2.7 µM; with HT29 colon it was 2.01 µM; in the experiment with NCI-H23 lung it was 16.1 µM; in the experiment on OVCAR-3 ovarian, 2.23 µM; in the experiment with SF-295 CNS, 17.9 µM. Also, the values for the GI50 in the experiment on SK-MEL-2 melanoma, in the experiment on SNB-19 CNS and in the experiment with SR leukemia were 18.9 µM, 18.8 µM and 1.76 µM, respectively. The TGI in the experiment with 786-0 renal was found to be 23.5 µM; with HOP-92 NSCLC, 7.36 µM; with HT29 colon, 4.03 µM; in the experiment with NCI-H23 lung, 33.8 µM; with OVCAR-3 ovarian it was 4.78 µM; with SF-295 CNS, 40.6 µM. The TGI in the experiment with SK-MEL-2 melanoma was found to be 36.5 µM; with SNB-19 CNS, 37.7 µM; with SR leukemia it was 5.64 µM.

As for `COc1cc(-c2nn3c(/C=C4/C(=O)Nc5ccccc54)c(-c4ccc(C)cc4)nc3s2)cc(OC)c1OC`, the GI50 with 786-0 renal is 5.8 µM; with HOP-92 NSCLC it was 0.42 µM; in the experiment on NCI-H23 lung it was 4.54 µM; in the experiment on OVCAR-3 ovarian it was 2.9 µM; in the experiment with SF-295 CNS, 5.04 µM; in the experiment with SK-MEL-2 melanoma, 16.3 µM. In addition, the GI50 was 7.89 µM with SNB-19 CNS and 2.35 µM with SR leukemia. Further, the TGI in the experiment with 786-0 renal was 21.4 µM; in the experiment on HOP-92 NSCLC, 8.99 µM; in the experiment on NCI-H23 lung, 25.3 µM; in the experiment on OVCAR-3 ovarian it was above 100 µM; in the experiment with SF-295 CNS it was 31.1 µM; in the experiment on SK-MEL-2 melanoma, 30.9 µM. Also, the TGI with SNB-19 CNS is 34.2 µM; with SR leukemia, above 100 µM.

With `COc1ccc(/C(=N/NC(N)=O)C2(O)C(=O)Nc3ccc([N+](=O)[O-])cc32)cc1` (stereo unspecified), the TGI turned out to be 30.2 µM in the experiment on 786-0 renal; 45.4 µM in the experiment on HOP-92 NSCLC; 42.2 µM with HT29 colon; 58.8 µM in the experiment with K-562 leukemia; 31.6 µM with NCI-H23 lung; 33.1 µM with OVCAR-3 ovarian. Moreover, the results for the TGI in the experiment on SK-MEL-2 melanoma, in the experiment with SNB-19 CNS and in the experiment on SR leukemia were 40.2 µM, above 10 µM and 47.1 µM, respectively.

For `CC1=CCC[C@@]2(C)C(CC[C@@H]2C(C)/C=C/C(C)C)c2ccc(cc2C(=O)O)C[C@@H](O)CC1` (stereo partly specified), the TGI in the experiment with 786-0 renal is 27.9 µM; with HOP-92 NSCLC, 28.9 µM; in the experiment on HT29 colon, 17.6 µM; in the experiment on K-562 leukemia it was 26.4 µM; in the experiment with OVCAR-3 ovarian it was 26.8 µM; in the experiment with SF-295 CNS, 21.7 µM. The values for the TGI in the experiment with SK-MEL-2 melanoma, in the experiment on SNB-19 CNS and in the experiment with SR leukemia were 37.5 µM, 17.5 µM and 33 µM, respectively.

For the compound `c1ccc(SC2(Sc3ccccc3)CCCC2)cc1`, the TGI in the experiment on 786-0 renal, with HOP-92 NSCLC, in the experiment with K-562 leukemia, with NCI-H23 lung, with OVCAR-3 ovarian and with SF-295 CNS was above 100 µM in each case. The TGI in the experiment on SK-MEL-2 melanoma, in the experiment on SNB-19 CNS and with SR leukemia was above 100 µM throughout.

As for `NNC(=S)N/N=C(\CCCC(=O)NCCc1ccccc1)CC(=O)c1ccccc1`, the TGI in the experiment with 786-0 renal, in the experiment with HOP-92 NSCLC, in the experiment on HT29 colon, with NCI-H23 lung, in the experiment on OVCAR-3 ovarian and with SF-295 CNS was above 100 µM in each case. The TGI in the experiment with SK-MEL-2 melanoma, with SNB-19 CNS and in the experiment with SR leukemia was above 100 µM in each case.

Turning to `COc1cccc(C2CC(c3cc(OC)c(OC)c(OC)c3)=NN2)c1` (stereo unspecified), the GI50 was 13.7 µM with 786-0 renal; 11.9 µM in the experiment with HOP-92 NSCLC; 3.2 µM with HT29 colon; 4.19 µM in the experiment with K-562 leukemia; 20.2 µM with OVCAR-3 ovarian; 9.61 µM in the experiment with SF-295 CNS. In addition, the GI50 in the experiment on SK-MEL-2 melanoma was 13.2 µM; in the experiment on SNB-19 CNS, 16.8 µM; in the experiment with SR leukemia it was 3.09 µM. Moreover, the TGI was 56.4 µM in the experiment with 786-0 renal; 39.2 µM with HOP-92 NSCLC; 27.2 µM in the experiment with HT29 colon; above 100 µM with K-562 leukemia; 76.3 µM in the experiment with OVCAR-3 ovarian; 38.3 µM in the experiment with SF-295 CNS. Besides, the values for the TGI in the experiment on SK-MEL-2 melanoma, in the experiment with SNB-19 CNS and in the experiment with SR leukemia were 54.6 µM, above 100 µM and 14.1 µM, respectively.
